Data set [1] relates to Staphylococcus aureus. In words: Antibacterial activity against Staphylococcus aureus ATCC 25923 by agar diffusion assay. In kind it is functional, organism-based.
For data set [2], the system named is Escherichia coli. The data set can be described thus: Antibacterial activity against Escherichia coli ATCC 25922 by agar diffusion assay. In kind it is functional, organism-based.
Data set [3] is described as follows: Solubility of the compound in aqueous medium. The conditions noted are these: buffer. In kind it is physicochemical.
Data set [4] deals with Mycolicibacterium smegmatis. In words: Antibacterial activity against Mycobacterium smegmatis ATCC 14468 after 12 to 18 hrs by twofold dilution method. The class given is functional.
The test system of data set [5] is Pseudomonas aeruginosa. The data set can be described thus: Antibacterial activity against Pseudomonas aeruginosa ATCC 27853 after 12 to 18 hrs by twofold dilution method. The class given is functional.
Data set [6] deals with Staphylococcus aureus. In words: microbe, parasite or virus in culture. The class given is functional. The conditions noted are these: ATCC 33591.
Description: (§1) Antibacterial activity against methicillin-resistant Staphylococcus aureus ATCC 33591 after 12 to 18 hrs by twofold dilution method
For data set [7], the system named is Escherichia coli. The data set can be described thus: Antibacterial activity against Escherichia coli ATCC 25922 after 12 to 18 hrs by twofold dilution method. In kind it is functional.
Data set [8] has as its system Enterococcus faecalis. In words: Antibacterial activity against Enterococcus faecalis ATCC 29212 after 12 to 18 hrs by twofold dilution method. The class given is functional.
Data set [9] has as its system Staphylococcus aureus. In words: microbe, parasite or virus in culture. In kind it is functional. Particulars: ATCC 25923.
Description: (§2) Antibacterial activity against Staphylococcus aureus ATCC 25923 after 12 to 18 hrs by twofold dilution method
Data set [10] deals with Klebsiella pneumoniae. In words: Antibacterial activity against Klebsiella pneumoniae ATCC 13883 after 12 to 18 hrs by twofold dilution method. In kind it is functional.
In data set [11] the test system is Enterococcus faecalis. The data set can be described thus: Antibacterial activity against vancomycin-resistant Enterococcus faecalis ATCC 51299 after 12 to 18 hrs by twofold dilution method. The class given is functional.
The subject of data set [12] is Enterococcus faecalis. The conditions noted are these: ATCC 51299.
Data set [13] has as its system Klebsiella pneumoniae. Particulars: ATCC 13883.
The subject of data set [14] is Staphylococcus aureus. Particulars: ATCC 33591.
Description: as §1
The test system of data set [15] is Mycolicibacterium smegmatis. Particulars: ATCC 14468.
The subject of data set [16] is Pseudomonas aeruginosa. The conditions noted are these: ATCC 27853.
The subject of data set [17] is Staphylococcus aureus. The conditions noted are these: ATCC 25923.
Description: as §2
Data set [18] concerns Escherichia coli. The conditions noted are these: ATCC 25922.
Data set [19] deals with Enterococcus faecalis. The conditions noted are these: ATCC 29212.

≈ marks a conversion by molar mass, not a printed value. Calls of active or inactive are those of the source. No cut-off for these calls is given here.

The text below walks through data of ChEMBL document CHEMBL1641534, “Synthesis and antibacterial activity study of a novel class of cationic anthraquinone analogs” (Bioorg Med Chem, 2011).

With `O=C1c2ccccc2C(=O)c2c1nnn2Cc1ccccn1`, the result in data set [1] and in data set [2] was inactive. Besides, the solubility result in [3] is recorded as “Insoluble”.

As to `C[n+]1nn(Cc2ccccn2)c2c1C(=O)c1ccccc1C2=O.[Cl-]`, the MIC in data set [4] is 16 µg/mL; in data set [5], ≥ 250 µg/mL; in data set [6], 2 µg/mL; in data set [7], 16 µg/mL; in data set [8], ≥ 250 µg/mL; in [9], 2 µg/mL. Besides, the results for the MIC in data set [10] and in data set [11] were 16 µg/mL and ≥ 250 µg/mL, respectively.

For the molecule `CCn1n[n+](C)c2c1C(=O)c1ccccc1C2=O.[Cl-]`, the MIC in data set [4] was 16 µg/mL; in data set [5] it was ≥ 250 µg/mL; in [6] it was 1 µg/mL; in [7], 16 µg/mL; in data set [8] it was ≥ 250 µg/mL; in data set [9], 1 µg/mL. The MIC in data set [10] is 32 µg/mL; in [11] it was ≥ 250 µg/mL.

As for `Cn1n[n+](C)c2c1C(=O)c1ccccc1C2=O.[Cl-]`, the MIC in data set [4] is 32 µg/mL; in [5], 125 µg/mL; in [6], 4 µg/mL; in data set [7] it was 32 µg/mL; in data set [8] it was ≥ 250 µg/mL; in data set [9], 4 µg/mL. The MIC in data set [10] came out at 64 µg/mL; in [11], 125 µg/mL.

Regarding `CCCCn1n[n+](C)c2c1C(=O)c1ccccc1C2=O.[Cl-]`, the MIC in data set [4] is 16 µg/mL; in data set [5], ≥ 250 µg/mL; in [6], 1 µg/mL; in [7] it was 16 µg/mL; in data set [8], ≥ 250 µg/mL; in [9], 2 µg/mL. The MIC is 32 µg/mL in data set [10] and ≥ 250 µg/mL in data set [11].

With `CCCCCCCCn1nnc2c1C(=O)c1ccccc1C2=O`, the outcome in [1] and in data set [2] was inactive. Moreover, the solubility result in data set [3] is “Insoluble”.

For `O=C1c2ccccc2C(=O)c2c1nnn2Cc1ccccc1`, the outcome in data set [1] and in data set [2] was inactive. The solubility result in data set [3] is “Insoluble”.

For `CCCCCCCCCCCCn1n[n+](C)c2c1C(=O)c1ccccc1C2=O.[Cl-]`, the MIC in data set [4] is 1 µg/mL; in data set [5] it was 16 µg/mL; in [6], 0.25 µg/mL; in data set [7] it was 2 µg/mL; in data set [8], 4 µg/mL; in [9] it was 0.032 µg/mL. The results for the MIC in data set [10] and in [11] were 2 µg/mL and 4 µg/mL, respectively.

`CCCCCCCCCCCCCCCC[N+](C)(C)Cc1ccccc1.[Cl-]` [CETALKONIUM CHLORIDE]: the MIC in data set [6] turned out to be 1 µg/mL; in data set [9], 2 µg/mL.

In the case of `NC[C@H]1O[C@H](O[C@H]2[C@H](O)[C@@H](O[C@H]3O[C@H](CO)[C@@H](O)[C@H](N)[C@H]3O)[C@H](N)C[C@@H]2N)[C@H](O)[C@@H](O)[C@@H]1O` [KANAMYCIN], the MIC amounted to 1 µg/mL (≈ 2.06 µM) in data set [4]; 125 µg/mL (≈ 258 µM) in data set [5]; 125 µg/mL (≈ 258 µM) in [6]; 2 µg/mL (≈ 4.13 µM) in [7]; 1 µg/mL (≈ 2.06 µM) in data set [9]; 0.5 µg/mL (≈ 1.03 µM) in [10].

With `CCCCn1nnc2c1C(=O)c1ccccc1C2=O`, the result in data set [1] and in data set [2] was inactive. Also, the solubility result in data set [3] is “Insoluble”.

With `C[n+]1nn(Cc2ccccc2)c2c1C(=O)c1ccccc1C2=O.[Cl-]`, the MIC in data set [4] was 8 µg/mL; in [5], 125 µg/mL; in [6], 0.5 µg/mL; in data set [7] it was 8 µg/mL; in [8], ≥ 250 µg/mL; in data set [9], 2 µg/mL. The MIC in [10] was 8 µg/mL; in data set [11], ≥ 250 µg/mL.

Regarding `CN[C@H](CC(C)C)C(=O)N[C@H]1C(=O)N[C@@H](CC(N)=O)C(=O)N[C@H]2C(=O)N[C@H]3C(=O)N[C@H](C(=O)N[C@H](C(=O)O)c4cc(O)cc(O)c4-c4cc3ccc4O)[C@H](O)c3ccc(c(Cl)c3)Oc3cc2cc(c3O[C@@H]2O[C@H](CO)[C@@H](O)[C@H](O)[C@H]2O[C@H]2C[C@](C)(N)[C@H](O)[C@H](C)O2)Oc2ccc(cc2Cl)[C@H]1O` [VANCOMYCIN], the MIC was ≥ 250 µg/mL in data set [5]; ≥ 250 µg/mL in data set [7]; 1 µg/mL (≈ 0.69 µM) in data set [8]; ≥ 250 µg/mL in data set [10]; 125 µg/mL (≈ 86.3 µM) in data set [11].

As to `NCC[C@H](O)C(=O)N[C@@H]1C[C@H](N)[C@@H](O[C@H]2O[C@H](CN)[C@@H](O)[C@H](O)[C@H]2O)[C@H](O)[C@H]1O[C@H]1O[C@H](CO)[C@@H](O)[C@H](N)[C@H]1O` [AMIKACIN], the MIC in data set [4] amounted to 0.25 µg/mL (≈ 0.427 µM); in data set [5], 0.25 µg/mL (≈ 0.427 µM); in data set [6], 16 µg/mL (≈ 27.3 µM); in [7], 1 µg/mL (≈ 1.71 µM); in [8], 32 µg/mL (≈ 54.6 µM); in [9], 0.5 µg/mL (≈ 0.854 µM). Besides, the results for the MIC in [10] and in data set [11] were 1 µg/mL (≈ 1.71 µM) and ≥ 250 µg/mL, respectively.

As to `CC(C)(C)OC(=O)N1CCC(n2nnc3c2C(=O)c2ccccc2C3=O)CC1`, the outcome in data set [1] and in data set [2] was inactive. Also, the solubility entry in data set [3] was “Insoluble”.

Turning to `NC[C@@H]1O[C@H](O[C@H]2[C@@H](O)[C@H](O[C@@H]3[C@@H](O)[C@H](N)C[C@H](N)[C@H]3O[C@H]3O[C@H](CN)[C@@H](O)[C@H](O)[C@H]3N)O[C@@H]2CO)[C@H](N)[C@@H](O)[C@@H]1O` [FRAMYCETIN], the MIC in [5] stood at 64 µg/mL (≈ 104 µM); in data set [6] it was 125 µg/mL (≈ 203 µM); in data set [7], 4 µg/mL (≈ 6.51 µM); in data set [8] it was 16 µg/mL (≈ 26 µM); in [9] it was 1 µg/mL (≈ 1.63 µM); in data set [10] it was 2 µg/mL (≈ 3.25 µM). The MIC in [11] amounted to 125 µg/mL (≈ 203 µM).

Consider `CCCCCCCCCCCCCCCCn1nnc2c1C(=O)c1ccccc1C2=O`, for which the result in data set [1] and in data set [2] was inactive. Further, the solubility entry in data set [3] is listed as “Insoluble”.

In the case of `CCCCCCCCn1n[n+](C)c2c1C(=O)c1ccccc1C2=O.[Cl-]`, the MIC in data set [4] is 1 µg/mL; in [5], ≥ 250 µg/mL; in data set [6], 0.5 µg/mL; in [7], 8 µg/mL; in data set [8] it was 125 µg/mL; in data set [9], 0.032 µg/mL. For the same molecule, the MIC in data set [10] is 8 µg/mL; in [11] it was 125 µg/mL.

As to `Cn1nnc2c1C(=O)c1ccccc1C2=O`, the result in [1] and in data set [2] was inactive. The solubility entry in [3] is on record as “Insoluble”.

Take `CCCCCCCCCCCCn1nnc2c1C(=O)c1ccccc1C2=O`: the outcome in [1] and in data set [2] was inactive. In [3], the solubility entry is given as “Insoluble”.

As for `CCCCCn1n[n+](C)c2c1C(=O)c1ccccc1C2=O.[Cl-]`, the MIC was 8 µg/mL in data set [4]; ≥ 250 µg/mL in data set [5]; 1 µg/mL in [6]; 8 µg/mL in data set [7]; ≥ 250 µg/mL in [8]; 2 µg/mL in [9]. Also, the MIC in data set [10] worked out at 32 µg/mL; in data set [11], 125 µg/mL.

Consider `C[n+]1nn(C2CCNCC2)c2c1C(=O)c1ccccc1C2=O.[Cl-]`, for which the MIC in data set [4] is 16 µg/mL; in [5] it was 64 µg/mL; in data set [6], 2 µg/mL; in data set [7] it was 32 µg/mL; in data set [8] it was ≥ 250 µg/mL; in [9], 2 µg/mL. Moreover, the MIC is 64 µg/mL in [10] and ≥ 250 µg/mL in [11].

`CCn1nnc2c1C(=O)c1ccccc1C2=O`: the outcome in [1] and in data set [2] was inactive. Besides, in data set [3], the solubility result is “Insoluble”.

With hexadecyltrimethylammonium bromide, the MIC in data set [12] was found to be 4 µg/mL; in data set [13], 1 µg/mL; in [14], 2 µg/mL; in data set [15], 1 µg/mL; in [16], 16 µg/mL; in data set [17] it was 0.5 µg/mL. Besides, the MIC in data set [18] was 1 µg/mL; in [19], 2 µg/mL.

Take `CCCCCn1nnc2c1C(=O)c1ccccc1C2=O`: the result in data set [1] and in [2] was inactive. Further, the solubility entry in [3] was “Insoluble”.
